The record followed here is paper PMC5881531 (FEBS Open Bio, 2018).

SMILES strings stand for the structures.

This assay concerns the target T1, Dihydroorotate dehydrogenase of Trypanosoma brucei (TbDHODH), FMN-free form (Trypanosoma brucei, UniProt Q57U83, A115V).
T1 construct: gene Tb927.5.3830
The experiment in a line: biochemical.

T1 sequence (Q57U83 whole entry A115V): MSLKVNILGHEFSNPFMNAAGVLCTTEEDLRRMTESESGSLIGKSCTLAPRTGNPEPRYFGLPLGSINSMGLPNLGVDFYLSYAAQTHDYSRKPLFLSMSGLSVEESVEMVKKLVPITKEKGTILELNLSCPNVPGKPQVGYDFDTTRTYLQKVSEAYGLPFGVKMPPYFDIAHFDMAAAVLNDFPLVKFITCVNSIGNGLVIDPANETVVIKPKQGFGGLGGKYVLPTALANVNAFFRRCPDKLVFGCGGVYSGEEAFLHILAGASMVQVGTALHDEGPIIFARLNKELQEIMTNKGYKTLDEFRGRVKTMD

`Cc1cc2nc3c(=O)[nH]c(=O)nc-3n(C[C@H](O)[C@H](O)[C@H](O)COP(=O)(O)O)c2cc1C` [FMN] yielded a Kd of 12 nM.
